Values after ≈ are worked out from the molar mass of the structure shown. Active and inactive are the calls of the source. No cut-off for these calls is given here.
Tests used:
Staphylococcus aureus [1] = test: Antibacterial activity against methicillin-resistant Staphylococcus aureus incubated in dark for 30 mins measured after 24 hrs; assay type: functional
Pseudomonas aeruginosa [2] = test: Antibacterial activity against Pseudomonas aeruginosa ATCC 27853 assessed as log reduction in bacterial count at 10 uM incubated in dark for 30 mins followed by exposure to light fluences at 650 nm and 6 J/cm2 and then incubated overnight measured after 24 hrs; assay type: functional
Escherichia coli [3] = test: Antibacterial activity against Escherichia coli ATCC 25922 incubated in dark for 30 mins and grown for 24 hrs followed by further incubation on LB agar plates for another 24 hrs; assay type: functional
Escherichia coli [4] = test: Antibacterial activity against Escherichia coli ATCC 25922 assessed as log reduction in bacterial count at 10 uM incubated in dark for 30 mins followed by exposure to light fluences at 650 nm and 6 J/cm2 and then incubated overnight measured after 24 hrs; assay type: functional
[5] = Photostability at 2 x 10^-5 mol/L exposed to 4.2 mW/cm2 light energy density assessed as change in absorption spectra after 30 mins post irradiation; assay type: physicochemical; conditions: 0.5 h, 20 µM
Staphylococcus aureus [6] = test: Bactericidal activity against methicillin-resistant Staphylococcus aureus incubated in dark for 30 mins followed by exposure to light fluences at 650 nm and 6 J/cm2 and then incubated overnight followed by further incubation on LB agar plates for another 24 hrs; assay type: functional; conditions: light or radiation study
Escherichia coli [7] = test: Antibacterial activity against Escherichia coli ATCC 25922 incubated in dark for 30 mins measured after 24 hrs; assay type: functional
Escherichia coli [8] = test: Bactericidal activity against Escherichia coli ATCC 25922 incubated in dark for 30 mins followed by exposure to light fluences at 650 nm and 6 J/cm2 and then incubated overnight followed by further incubation on LB agar plates for another 24 hrs; assay type: functional; conditions: ATCC 25922, light or radiation study
Escherichia coli [9] = test: Antibacterial activity against Escherichia coli ATCC 25922 incubated in dark for 30 mins followed by exposure to light fluences at 650 nm and 6 J/cm2 and then incubated overnight measured after 24 hrs; assay type: functional; conditions: ATCC 25922, light or radiation study
Staphylococcus aureus [10] = test: Antibacterial activity against methicillin-resistant Staphylococcus aureus incubated in dark for 30 mins and grown for 24 hrs followed by further incubation on LB agar plates for another 24 hrs; assay type: functional
[11] = Singlet oxygen generation of the compound exposed to 4.2 mW/cm2 light energy density assessed as singlet oxygen quantum yield measured at 410 nm in 10 seconds intervals of irradiation at 0.2 uM by DPBF scavenger based assay
[12] = Octanol water partition coefficient, log P of the compound by reverse-phase thin-layer chromatography; assay type: physicochemical
Staphylococcus aureus [13] = test: Antibacterial activity against methicillin-resistant Staphylococcus aureus incubated in dark for 30 mins followed by exposure to light fluences at 650 nm and 6 J/cm2 and then incubated overnight measured after 24 hrs; assay type: functional; conditions: light or radiation study
Pseudomonas aeruginosa [14] = test: Antibacterial activity against Pseudomonas aeruginosa ATCC 27853 incubated in dark for 30 mins measured after 24 hrs; assay type: functional
Pseudomonas aeruginosa [15] = test: Antibacterial activity against Pseudomonas aeruginosa ATCC 27853 incubated in dark for 30 mins and grown for 24 hrs followed by further incubation on LB agar plates for another 24 hrs; assay type: functional
Staphylococcus aureus [16] = test: Antibacterial activity against methicillin-resistant Staphylococcus aureus assessed as log reduction in bacterial count at 10 uM incubated in dark for 30 mins followed by exposure to light fluences at 650 nm and 6 J/cm2 and then incubated overnight measured after 24 hrs; assay type: functional
Pseudomonas aeruginosa [17] = test: Bactericidal activity against Pseudomonas aeruginosa ATCC 27853 incubated in dark for 30 mins followed by exposure to light fluences at 650 nm and 6 J/cm2 and then incubated overnight followed by further incubation on LB agar plates for another 24 hrs; assay type: functional; conditions: ATCC 27853, light or radiation study
Pseudomonas aeruginosa [18] = test: Antibacterial activity against Pseudomonas aeruginosa ATCC 27853 incubated in dark for 30 mins followed by exposure to light fluences at 650 nm and 6 J/cm2 and then incubated overnight measured after 24 hrs; assay type: functional; conditions: ATCC 27853, light or radiation study
Escherichia coli [19] = test: Antibacterial activity against Escherichia coli ATCC 25922 at 3.91 uM to 62.50 uM incubated in dark for 30 mins followed by exposure to light fluences at 650 nm and 6 J/cm2 and then incubated overnight measured after 24 hrs; assay type: functional, organism-based
Escherichia coli [20] = test: Antibacterial activity against Escherichia coli ATCC 25922 at 0.49 uM to 7.8 uM incubated in dark for 30 mins followed by exposure to light fluences at 650 nm and 6 J/cm2 and then incubated overnight measured after 24 hrs; assay type: functional, organism-based
Staphylococcus aureus [21] = test: Antibacterial activity against methicillin-resistant Staphylococcus aureus at 0.49 uM to 7.8 uM incubated in dark for 30 mins followed by exposure to light fluences at 650 nm and 6 J/cm2 and then incubated overnight measured after 24 hrs; assay type: functional, organism-based
Pseudomonas aeruginosa [22] = test: Antibacterial activity against Pseudomonas aeruginosa ATCC 27853 at 0.49 uM to 7.8 uM incubated in dark for 30 mins followed by exposure to light fluences at 650 nm and 6 J/cm2 and then incubated overnight measured after 24 hrs; assay type: functional, organism-based
Pseudomonas aeruginosa [23] = test: Antibacterial activity against Pseudomonas aeruginosa ATCC 27853 at 3.91 uM to 62.50 uM incubated in dark for 30 mins followed by exposure to light fluences at 650 nm and 6 J/cm2 and then incubated overnight measured after 24 hrs; assay type: functional, organism-based
Staphylococcus aureus [24] = test: Drug uptake in methicillin-resistant Staphylococcus aureus at 12.5 uM by confocal laser scanning microscopy; assay type: ADME, organism-based; conditions: in vivo
Escherichia coli [25] = test: Drug uptake in Escherichia coli ATCC 25922 at 12.5 uM by confocal laser scanning microscopy; assay type: ADME, organism-based; conditions: in vivo
Pseudomonas aeruginosa [26] = test: Drug uptake in Pseudomonas aeruginosa ATCC 27853 at 12.5 uM by confocal laser scanning microscopy; assay type: ADME, organism-based; conditions: in vivo

Compound | MIC (Staphylococcus aureus [1]) [µM] | log reduction in bacterial count (Pseudomonas aeruginosa [2]) | MBC (Escherichia coli [3]) [µM] | log reduction in bacterial count (Escherichia coli [4]) | Activity [5] [%] | MBC (Staphylococcus aureus [6]) [µM] | MIC (Escherichia coli [7]) [µM] | MBC (Escherichia coli [8]) [µM] | MIC (Escherichia coli [9]) [µM] | MBC (Staphylococcus aureus [10]) [µM] | Activity [11] | logP [12] | MIC (Staphylococcus aureus [13]) [µM] | MIC (Pseudomonas aeruginosa [14]) [µM] | MBC (Pseudomonas aeruginosa [15]) [µM] | Log reduction in bacterial count (Staphylococcus aureus [16]) | MBC (Pseudomonas aeruginosa [17]) [µM] | MIC (Pseudomonas aeruginosa [18]) [µM] | further results
NCCCC[C@H](N)C(=O)Nc1ccc(-c2c3nc(c(-c4ccc(N)cc4)c4ccc([nH]4)c(-c4ccc(NC(=O)[C@@H](N)CCCCN)cc4)c4nc(c(-c5ccc(N)cc5)c5ccc2[nH]5)C=C4)C=C3)cc1 | 125 (≈ 116 µg/mL) | >5 | 500 (≈ 466 µg/mL) | 2 | < 20 | 15.6 (≈ 14.6 µg/mL) | 250 (≈ 233 µg/mL) | 31.2 (≈ 29.1 µg/mL) | 15.6 (≈ 14.6 µg/mL) | 250 (≈ 233 µg/mL) | 0.79 | 1.3 | 7.81 (≈ 7.27 µg/mL) | 250 (≈ 233 µg/mL) | 500 (≈ 466 µg/mL) | 3 | 31.2 (≈ 29.1 µg/mL) | 15.6 (≈ 14.6 µg/mL) | –
NCCCC[C@H](N)C(=O)Nc1ccc(-c2c3nc(c(-c4ccc(NC(=O)[C@@H](N)CCCCN)cc4)c4ccc([nH]4)c(-c4ccc(NC(=O)[C@@H](N)CCCCN)cc4)c4nc(c(-c5ccc(N)cc5)c5ccc2[nH]5)C=C4)C=C3)cc1 | 125 (≈ 132 µg/mL) | 1 | > 500 | 3 | < 20 | 62.5 (≈ 66.2 µg/mL) | 125 (≈ 132 µg/mL) | 31.2 (≈ 33.1 µg/mL) | 15.6 (≈ 16.5 µg/mL) | 500 (≈ 530 µg/mL) | 0.73 | 1.21 | 31.2 (≈ 33.1 µg/mL) | 250 (≈ 265 µg/mL) | > 500 | 3 | 62.5 (≈ 66.2 µg/mL) | 31.2 (≈ 33.1 µg/mL) | –
NCCCC[C@H](N)C(=O)Nc1ccc(-c2c3nc(c(-c4ccccc4)c4ccc([nH]4)c(-c4ccc(NC(=O)[C@@H](N)CCCCN)cc4)c4nc(c(-c5ccccc5)c5ccc2[nH]5)C=C4)C=C3)cc1 | 125 (≈ 113 µg/mL) | >5 | 125 (≈ 113 µg/mL) | 2 | < 20 | 31.2 (≈ 28.2 µg/mL) | 62.5 (≈ 56.3 µg/mL) | 31.2 (≈ 28.2 µg/mL) | 15.6 (≈ 14.1 µg/mL) | 250 (≈ 225 µg/mL) | 0.57 | 1.37 | 15.6 (≈ 14.1 µg/mL) | 62.5 (≈ 56.3 µg/mL) | 125 (≈ 113 µg/mL) | 3 | 62.5 (≈ 56.3 µg/mL) | 31.2 (≈ 28.2 µg/mL) | –
Nc1ccc(-c2c3nc(c(-c4ccc(N)cc4)c4ccc([nH]4)c(-c4ccc(NC(=O)[C@@H](N)Cc5c[nH]cn5)cc4)c4nc(c(-c5ccc(N)cc5)c5ccc2[nH]5)C=C4)C=C3)cc1 | 62.5 (≈ 50.7 µg/mL) | – | 250 (≈ 203 µg/mL) | – | < 20 | 250 (≈ 203 µg/mL) | 62.5 (≈ 50.7 µg/mL) | 250 (≈ 203 µg/mL) | 62.5 (≈ 50.7 µg/mL) | 250 (≈ 203 µg/mL) | 0.2 | 1.53 | 62.5 (≈ 50.7 µg/mL) | 62.5 (≈ 50.7 µg/mL) | 250 (≈ 203 µg/mL) | – | 250 (≈ 203 µg/mL) | 62.5 (≈ 50.7 µg/mL) | Activity (Escherichia coli [19]): inactive; Activity (Escherichia coli [20]): inactive; Activity (Staphylococcus aureus [21]): inactive; Activity (Pseudomonas aeruginosa [22]): inactive; Activity (Pseudomonas aeruginosa [23]): inactive
NCCCC[C@H](N)C(=O)Nc1ccc(-c2c3nc(c(-c4ccc(NC(=O)[C@@H](N)CCCCN)cc4)c4ccc([nH]4)c(-c4ccccc4)c4nc(c(-c5ccccc5)c5ccc2[nH]5)C=C4)C=C3)cc1 | 62.5 (≈ 56.3 µg/mL) | >5 | 250 (≈ 225 µg/mL) | 2 | < 20 | 62.5 (≈ 56.3 µg/mL) | 125 (≈ 113 µg/mL) | 62.5 (≈ 56.3 µg/mL) | 31.2 (≈ 28.2 µg/mL) | 125 (≈ 113 µg/mL) | 0.65 | 1.39 | 31.2 (≈ 28.2 µg/mL) | 62.5 (≈ 56.3 µg/mL) | 125 (≈ 113 µg/mL) | 3 | 62.5 (≈ 56.3 µg/mL) | 31.2 (≈ 28.2 µg/mL) | –
N[C@@H](Cc1c[nH]cn1)C(=O)Nc1ccc(-c2c3nc(c(-c4ccccc4)c4ccc([nH]4)c(-c4ccccc4)c4nc(c(-c5ccccc5)c5ccc2[nH]5)C=C4)C=C3)cc1 | 125 (≈ 95.9 µg/mL) | – | 250 (≈ 192 µg/mL) | – | < 20 | 250 (≈ 192 µg/mL) | 125 (≈ 95.9 µg/mL) | 125 (≈ 95.9 µg/mL) | 62.5 (≈ 47.9 µg/mL) | 500 (≈ 383 µg/mL) | 0.56 | 1.6 | 125 (≈ 95.9 µg/mL) | 125 (≈ 95.9 µg/mL) | 250 (≈ 192 µg/mL) | – | 125 (≈ 95.9 µg/mL) | 62.5 (≈ 47.9 µg/mL) | Activity (Escherichia coli [19]): inactive; Activity (Escherichia coli [20]): inactive; Activity (Staphylococcus aureus [21]): inactive; Activity (Pseudomonas aeruginosa [22]): inactive; Activity (Pseudomonas aeruginosa [23]): inactive
NCCCC[C@H](N)C(=O)Nc1ccc(-c2c3nc(c(-c4ccccc4)c4ccc([nH]4)c(-c4ccccc4)c4nc(c(-c5ccccc5)c5ccc2[nH]5)C=C4)C=C3)cc1 | > 500 | – | > 500 | – | < 20 | > 500 | > 500 | > 500 | 500 (≈ 379 µg/mL) | > 500 | 0.83 | 1.69 | 500 (≈ 379 µg/mL) | 500 (≈ 379 µg/mL) | > 500 | – | 500 (≈ 379 µg/mL) | 250 (≈ 189 µg/mL) | Drug uptake (Staphylococcus aureus [24]): Not Active; Drug uptake (Escherichia coli [25]): Not Active; Drug uptake (Pseudomonas aeruginosa [26]): Not Active

From ChEMBL document CHEMBL3407491, “Synthesis, characterization and in vitro photodynamic antimicrobial activity of basic amino acid-porphyrin conjugates” (Eur J Med Chem, 2015)
